We go through 8 compounds from ChEMBL document CHEMBL1201862, “PubChem BioAssay data set” (2004).

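Growth conditions: 96-well plates. Treatment: test compound, 48 hours, 5 concentrations. Analysis: linear interpolation between bracketing concentrations; unreached endpoints set to highest concentration. Here, GI50 denotes the concentration required for 50% inhibition of growth.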 Activity calls are given as the source filed them. Rule as the data show it: active = GI50 up to about 1.1 µM and inactive = higher.

Holding throughout (assay): inhibition of tumour cell growth, NCI panel, 48 h
Assay [1] deals with A498.
The test system of assay [2] is A549.
The test system of assay [3] is BT-549.
The subject of assay [4] is COLO 205.
Assay [5] relates to EKVX.
For assay [6], the system named is HCT-15.
The subject of assay [7] is KM12.
Assay [8] relates to Malme-3M.
Assay [9] has as its system NCI-H23.
Assay [10] has as its system NCI-H460.
For assay [11], the system named is NCI/ADR-RES.
Assay [12] relates to PC-3.
The test system of assay [13] is RXF 393.
The subject of assay [14] is SK-MEL-28.
Assay [15] concerns SN12C.
In assay [16] the test system is SW-620.
Assay [17] deals with UACC-257.
Assay [18] concerns UACC-62.
For assay [19], the system named is UO-31.

On to `CC12NC(=C(C#N)C#N)C(C#N)=C3NC(N)=C(C#N)C(=C31)Oc1ccccc12` (configuration not stated), for which the GI50 in assay [1] is > 30.9 µM (inactive); in [2], 17 µM (inactive); in [3] it was > 24.8 µM (inactive); in [4] it was 4.71 µM (inactive); in [5], > 66.5 µM (inactive); in assay [6], 28.8 µM. For the same compound, the GI50 was 3.77 µM (inactive) in assay [7]; 20.6 µM (inactive) in assay [8]; 6.85 µM (inactive) in assay [9]; 31 µM (inactive) in assay [10]; > 100 µM (inactive) in [11]; 30.1 µM (inactive) in assay [12]. For the same compound, the GI50 in [13] is 2.53 µM (inactive); in assay [14], > 66.7 µM (inactive); in assay [15] it was > 30.7 µM (inactive); in [16], > 26.6 µM (inactive); in [17], > 100 µM (inactive); in assay [18] it was 15 µM (inactive). The GI50 in assay [19] was > 100 µM (inactive).

For `O=c1[nH]nc(-c2ccccc2)n1/N=C/c1cccs1`, the GI50 in assay [1] was 54.2 µM (inactive); in assay [2], 52.4 µM (inactive); in assay [3], 27.5 µM (inactive); in [4] it was 19.5 µM (inactive); in [5], 83.6 µM (inactive); in assay [6], 44.3 µM. Moreover, the GI50 is > 100 µM (inactive) in [7]; 62.5 µM (inactive) in [8]; 36.6 µM (inactive) in [9]; 36.3 µM (inactive) in [10]; 32.7 µM (inactive) in [11]; 66.1 µM (inactive) in assay [12]. Moreover, the GI50 was 37.3 µM (inactive) in assay [13]; 86.9 µM (inactive) in [14]; 46.8 µM (inactive) in [15]; 82 µM (inactive) in [16]; 56.8 µM (inactive) in [17]; 46.7 µM (inactive) in [18]. The GI50 in [19] was 58.3 µM (inactive).

Take `CC(C)OP(=O)(OC(C)C)C(C(C)C)N(C)/C(N)=N/C#N` (configuration not stated): the GI50 in assay [1] is > 100 µM (inactive); in assay [2], > 100 µM (inactive); in assay [3] it was > 100 µM (inactive); in assay [4], > 100 µM (inactive); in [5], > 100 µM (inactive); in assay [6] it was above 100 µM. Further, the GI50 in assay [7], in assay [8], in [9], in assay [10], in assay [11] and in assay [12] was > 100 µM (inactive) throughout. In addition, the GI50 in assay [13], in assay [14], in assay [15], in [16], in assay [17] and in assay [18] was > 100 µM (inactive) in each case. In [19], the GI50 was > 100 µM (inactive).

With `C=C1c2nc3ccccc3n2C=C(c2ccc(OC)cc2)N1c1ccc(OCCN2CCOCC2)cc1`, the GI50 in assay [1] is 66.8 µM (inactive); in [2] it was 28.4 µM (inactive); in [3], 49.2 µM (inactive); in [4], 10.8 µM (inactive); in [5], > 100 µM (inactive); in assay [6], 6.15 µM. Also, the GI50 in [7] is 15.8 µM (inactive); in assay [8], 6.52 µM (inactive); in assay [9] it was > 25.2 µM (inactive); in assay [10] it was 3.72 µM (inactive); in assay [11] it was 5.21 µM (inactive); in assay [12], 9.51 µM (inactive). The GI50 in [13] was 71.6 µM (inactive); in assay [14] it was 42.2 µM (inactive); in assay [15], > 61.8 µM (inactive); in [16], 44.3 µM (inactive); in [17], 7.13 µM (inactive); in assay [18], 20.4 µM (inactive). In addition, the GI50 in [19] was 24.7 µM (inactive).

`O=C1C2CCN(CC2)C1(CO)CO`: the GI50 in assay [1] is > 51.1 µM (inactive); in assay [2] it was 78.3 µM (inactive); in [3], 19.8 µM (inactive); in [4] it was 18.7 µM (inactive); in assay [5], 49.7 µM (inactive); in [6] it was 16.1 µM. Further, the GI50 is 64.7 µM (inactive) in [7]; 18.2 µM (inactive) in [8]; 25.2 µM (inactive) in assay [9]; 66.7 µM (inactive) in [10]; 24.5 µM (inactive) in [11]; > 79.1 µM (inactive) in [12]. Moreover, the GI50 in [13] was 21.1 µM (inactive); in [14], 26.4 µM (inactive); in assay [15], 17.6 µM (inactive); in assay [16], 18.2 µM (inactive); in assay [17] it was 18.6 µM (inactive); in assay [18] it was 25.1 µM (inactive). Moreover, the GI50 in assay [19] was 16.1 µM (inactive).

For the compound `C/C(=N\NC(=S)N1CC2CCC(CC2)C1)c1cccc(C)n1`, the GI50 in assay [1] was 3.11 µM (inactive); in [2], 0.9 µM (active); in [3], 1.32 µM (inactive); in [4] it was 0.01 µM (active); in assay [5], 0.488 µM (active); in assay [6], 0.537 µM. Further, the GI50 in [7] was 0.422 µM (active); in assay [8] it was 2.11 µM (inactive); in assay [9], 2.49 µM (inactive); in assay [10], 0.248 µM (active); in assay [11], 0.01 µM (active); in assay [12], 0.01 µM (active). Also, the GI50 in assay [13] was 3.72 µM (inactive); in assay [14], 2.94 µM (inactive); in assay [15], 0.566 µM (active); in [16], 0.148 µM (active); in assay [17] it was 0.142 µM (active); in assay [18], 0.621 µM (active). The GI50 in assay [19] is 0.505 µM (active).

In the case of `COc1cc(C2c3cc4c(cc3OC(Nc3ccccc3)C2C)OCO4)cc(OC)c1OC` (configuration not stated), the GI50 was 0.324 µM (active) in assay [1]; 1.11 µM (active) in [2]; 4.36 µM (inactive) in assay [3]; 0.415 µM (active) in [4]; 1.31 µM (inactive) in assay [5]; 0.494 µM in assay [6]. For the same compound, the GI50 in [7] was 0.48 µM (active); in assay [8], 0.166 µM (active); in assay [9], 0.991 µM (active); in assay [10] it was 0.524 µM (active); in [11] it was 0.564 µM (active); in assay [12] it was 0.468 µM (active). Besides, the GI50 is 0.565 µM (active) in assay [13]; 1.61 µM (inactive) in [14]; 0.659 µM (active) in assay [15]; 0.473 µM (active) in [16]; 2.82 µM (inactive) in assay [17]; 0.621 µM (active) in assay [18]. Besides, the GI50 in assay [19] is 2.09 µM (inactive).

Take `COc1cc2c(cc1OC)C/C(=N\O)c1cc(OC)c(OC)cc1/C=C\2`: the GI50 in assay [1] is 21.2 µM (inactive); in [2] it was 8.38 µM (inactive); in [3], 28.7 µM (inactive); in [4], 4.91 µM (inactive); in assay [5], 10.7 µM (inactive); in [6], 5.31 µM. Also, the GI50 is 5.2 µM (inactive) in assay [7]; 1.48 µM (inactive) in [8]; 14.2 µM (inactive) in assay [9]; 3.15 µM (inactive) in [10]; 5.55 µM (inactive) in assay [11]; 10.2 µM (inactive) in assay [12]. Besides, the GI50 in assay [13] was 5.25 µM (inactive); in assay [14] it was 4.6 µM (inactive); in assay [15] it was 10.4 µM (inactive); in assay [16], 3.48 µM (inactive); in [17] it was 10.4 µM (inactive); in [18] it was 6.81 µM (inactive). Also, the GI50 in [19] is 15.9 µM (inactive).
